Consider two compounds from patent US20120258975A1, “Potent Small Molecule Inhibitors of Autophagy, and Methods of Use Thereof” (Shanghai Institute of Organic Chemistry, priority 2009, published 2012).

“Also recorded” adds a separate entry of the source.

One assay deals with PtdIns3P. In words: Lipid dot blot assay for cellular PtdIns3P. The format is cell-based, mouse. The note with it: 10 μM, 3 h; basal and rapamycin treated cells. The procedure:
FIG. 9 depicts results showing that MBCQ and C43 (spautin) selectively reduce the cellular levels of PtdIns3P. MEF cells were treated with DMSO (0.1%), RAPA (0.2 μM) alone, A, MBCQ (10 μM) or B, C43 (spautin) (10 μM) with or without RAPA (0.2 μM) for 3 h. The cellular PtdIns species were extracted and applied onto polyvinylidene fluoride membrane. The levels of PtdIns3P were detected using GST-PX domain protein and anti-GST antibody.
To further determine the effect of MBCQ on the cellular levels of PtdIns3P, a lipid dot blot assay was used. The cellular PtdIns species were extracted and applied onto polyvinylidene fluoride membrane. The levels of PtdIns3P was detected using GST-PX domain protein and anti-GST antibody. […] Taken together, it was concluded that MBCQ reduces the levels of PtdIns3P.

A further assay deals with bax/bak DKO MEF cells. In words: Etoposide induced cell death of bax/bak DKO cells. The format is cell-based, mouse. The note with it: MBCQ 10 μM; for cell death induced by etoposide: etoposide 8 μM, spautin 10 μM, 3-MA 10 mM, 8 h. The procedure:
C, cells were collected for western blotting using anti-LC3 antibody. α-tubulin was used as a control. D-F, Bax/bak DKO cells were treated with spautin (10 μM) or indicated concentration, in the presence of or absent etoposide (8 μM) for 8 h or indicated time. […] F, Cells were collected for western blotting using anti-LC3 antibody. α-tubulin was used as a control.
Autophagy has been proposed to contribute to cell death in a number of apoptotic deficient cell types. For example, bax/bak double deficient mouse embryonic fibroblast cells (DKO mefs) are highly resistant to apoptosis (Wei, M. C., Zong, W. X., Cheng, E. H., Lindsten, T., Panoutsakopoulou, V., Ross, A. J., Roth, K. A., MacGregor, G. R., Thompson, C. B., and Korsmeyer, S. J. (2001). Proapoptotic BAX and BAK: a requisite gateway to mitochondrial dysfunction and death. Science 292, 727-730).

For the next assay, the target named is PDE5 (Homo sapiens, UniProt O76074). In words: Determination of % inhibition of PDE5 activity. It is filed as biochemical.
The test system of the next assay is PI3P (FYVE-RFP). In words: FYVE-RFP spots in H4-FYVE cells. It is filed as cell-based. The note with it: 10 μM; for levels of FYVE-RFP spots: basal and rapamycin treated H4 cells. The procedure: H4-FYVE cells were treated with DMSO (0.1%), MBCQ (10 μM) or C43 (spautin) (10 μM) for indicated time. A, The images were analyzed by fluorescence microscopy and quantified by HCS after fixing in 4% paraformaldehyde and stained with 4,6-diamidino-2-phenylindole (DAPI, 3 μg/mL). Images of 1000 cells for each compound treatment were analyzed by ArrayScan HCS 4.0 Reader with a 20× objective (Cellomics, Pittsburgh, Pa.). B, H4-FYVE cells were treated with DMSO (0.1%), RAPA (0.2 μM) alone, MBCQ (10 μM) or C43 (spautin) (10 μM) with or without RAPA (0.2 uM) for 8 h. The cell lysates were collected for western blotting using anti-RFP and anti-tubulin as a loading control.
The levels of PtdIns3P (PI3P) are known to play a critical role in mediating autophagy (Levine, B., and Klionsky, D. J. (2004). Development by self-digestion: molecular mechanisms and biological functions of autophagy. Dev Cell 6, 463-477). To ask if MBCQ has an effect on PI3P, H4 cells expressing FYVE-RFP were used. FYVE binds specifically to PI3P and is widely used as a marker for cellular levels for PI3P (Gaullier, J. M., Simonsen, A., D'Arrigo, A., Bremnes, B., Stenmark, H., and Aasland, R. (1998). FYVE fingers bind PtdIns(3)P. Nature 394, 432-433).

For `Clc1ccc2ncnc(NCc3ccc4c(c3)OCO4)c2c1` [MBCQ], the “cellular levels of PtdIns3P” value with PtdIns3P is reported as “selectively reduced the cellular levels of PtdIns3P”. Moreover, the “levels of LC3II in etoposide treated cells” value in the assay on bax/bak DKO MEF cells is recorded as “reduced in the presence of MBCQ”. Besides, in the assay with bax/bak DKO MEF cells, the “cell death induced by etoposide” value is on record as “significantly reduced cell death; also recorded: inhibits etoposide induced death”. The entries for the “% Inhibition of PDE5 activity, Average” value at PDE5 (Concentration = 0.2 μM), on PDE5 (Concentration = 2 μM) and on PDE5 (Concentration = 20 μM) were 54.4%, 91.0% and 98.8%, respectively. Also, in the assay with PI3P (FYVE-RFP), the “levels of FYVE-RFP spots” value is “rapidly and effectively reduced the levels of FYVE-RFP spots”.

With `Fc1ccc(CNc2ncnc3ccc(F)cc23)cc1` [C43, 6-fluoro-N-(4-fluorobenzyl)quinazolin-4-amine], the “cellular levels of PtdIns3P” value in the assay on PtdIns3P was “selectively reduced the cellular levels of PtdIns3P”. Also, in the assay on bax/bak DKO MEF cells, the “cell death induced by etoposide” value is listed as “inhibits etoposide induced death”. Further, the “inhibiting activity towards PDE5 and other PDEs” value at PDE5 (compared with MBCQ) is given as “much reduced inhibiting activity”. Also, in the assay with PI3P (FYVE-RFP), the “protein levels of FYVE-RFP by western blotting” value is given as “no effect on the protein levels of FYVE-RFP” and the “levels of FYVE-RFP spots” value is “reduce FYVE-RFP spots”.
